Measurements from the supplement of paper PMC13207355.
Where a name gives a salt, the structure may show the parent alone.

Key:
Conditions in all cases: exposure time: 72 h
E13 [1] = patient-derived glioblastoma stem cells of classical subtype; experiment: surviving fraction (nuclei count normalised to DMSO); higher = more cells surviving (less toxic)
E31 [2] = patient-derived glioblastoma stem cells of proneural subtype; experiment: as above
E57 [3] = patient-derived glioblastoma stem cells of mesenchymal subtype; experiment: as above
FT3469 [4] = normal neural stem cell line; experiment: as above
E28 [5] = patient-derived glioblastoma stem cells of classical subtype; experiment: as above
E21 [6] = patient-derived glioblastoma stem cells of mesenchymal subtype; experiment: as above
E34 [7] = patient-derived glioblastoma stem cells of proneural subtype; experiment: as above
E13 [8] = experiment: phenotypic distance (Euclidean, principal components) from DMSO controls (arbitrary units); higher = stronger morphological change
E31 [9] = experiment: as above
E57 [10] = experiment: as above
FT3469 [11] = experiment: as above
E28 [12] = experiment: as above
E21 [13] = experiment: as above
E34 [14] = experiment: as above
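Wherever phenotypic distance (Euclidean, principal components) from DMSO controls is given: cell Painting imaging in 384-well plates, CellProfiler features reduced to at least 20 principal components, Euclidean distance versus same-plate DMSO vehicle wells (0.1% v/v), median over six images per well.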
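Wherever surviving fraction (nuclei count normalised to DMSO) is given: nuclei counted by high-content imaging of Hoechst-stained cells in laminin-coated 384-well plates, relative to 0.1% DMSO vehicle wells, with staurosporine as cell-death control.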

NCCCP(=O)(O)O [3-Aminopropylphosphonic acid]
Conditions | phenotypic distance | surviving fraction
E13 [1], 4.1 nM | – | 0.801
E13 [1], 12.3 nM | – | 0.888
E13 [1], 37 nM | – | 1
E13 [1], 111.1 nM | – | 0.872
E13 [1], 333.3 nM | – | 0.982
E13 [1], 1000 nM | – | 0.884
E13 [1], 3000 nM | – | 0.962
E13 [8], 4.1 nM | 0.873 | –
E13 [8], 12.3 nM | 0.485 | –
E13 [8], 37 nM | 1.1 | –
E13 [8], 111.1 nM | 0.795 | –
E13 [8], 333.3 nM | 1.09 | –
E13 [8], 1000 nM | 0.46 | –
E13 [8], 3000 nM | 0.816 | –
E21 [6], 4.1 nM | – | 0.806
E21 [6], 12.3 nM | – | 0.98
E21 [6], 37 nM | – | 0.902
E21 [6], 111.1 nM | – | 0.886
E21 [6], 333.3 nM | – | 1.08
E21 [6], 1000 nM | – | 1
E21 [6], 3000 nM | – | 0.86
E21 [13], 4.1 nM | 1.29 | –
E21 [13], 12.3 nM | 5.29 | –
E21 [13], 37 nM | 0.988 | –
E21 [13], 111.1 nM | 1.15 | –
E21 [13], 333.3 nM | 1.08 | –
E21 [13], 1000 nM | 0.704 | –
E21 [13], 3000 nM | 0.925 | –
E28 [5], 4.1 nM | – | 0.762
E28 [5], 12.3 nM | – | 0.907
E28 [5], 37 nM | – | 0.775
E28 [5], 111.1 nM | – | 0.984
E28 [5], 333.3 nM | – | 0.931
E28 [5], 1000 nM | – | 0.888
E28 [5], 3000 nM | – | 0.713
E28 [12], 4.1 nM | 0.627 | –
E28 [12], 12.3 nM | 0.887 | –
E28 [12], 37 nM | 1.05 | –
E28 [12], 111.1 nM | 0.933 | –
E28 [12], 333.3 nM | 1.07 | –
E28 [12], 1000 nM | 0.732 | –
E28 [12], 3000 nM | 1.53 | –
E31 [2], 4.1 nM | – | 1.14
E31 [2], 12.3 nM | – | 0.932
E31 [2], 37 nM | – | 1
E31 [2], 111.1 nM | – | 0.983
E31 [2], 333.3 nM | – | 1.05
E31 [2], 1000 nM | – | 0.771
E31 [2], 3000 nM | – | 0.945
E31 [9], 4.1 nM | 0.65 | –
E31 [9], 12.3 nM | 0.816 | –
E31 [9], 37 nM | 0.948 | –
E31 [9], 111.1 nM | 0.488 | –
E31 [9], 333.3 nM | 0.824 | –
E31 [9], 1000 nM | 0.792 | –
E31 [9], 3000 nM | 0.929 | –
E34 [7], 4.1 nM | – | 0.923
E34 [7], 12.3 nM | – | 1.06
E34 [7], 37 nM | – | 0.998
E34 [7], 111.1 nM | – | 1.09
E34 [7], 333.3 nM | – | 1.08
E34 [7], 1000 nM | – | 1.05
E34 [7], 3000 nM | – | 1.05
E34 [14], 4.1 nM | 0.981 | –
E34 [14], 12.3 nM | 3.38 | –
E34 [14], 37 nM | 1.08 | –
E34 [14], 111.1 nM | 0.945 | –
E34 [14], 333.3 nM | 0.527 | –
E34 [14], 1000 nM | 4.28 | –
E34 [14], 3000 nM | 0.559 | –
E57 [3], 4.1 nM | – | 0.924
E57 [3], 12.3 nM | – | 0.912
E57 [3], 37 nM | – | 1.01
E57 [3], 111.1 nM | – | 1.06
E57 [3], 333.3 nM | – | 0.959
E57 [3], 1000 nM | – | 0.941
E57 [3], 3000 nM | – | 1.07
E57 [10], 4.1 nM | 1.04 | –
E57 [10], 12.3 nM | 0.788 | –
E57 [10], 37 nM | 0.764 | –
E57 [10], 111.1 nM | 0.744 | –
E57 [10], 333.3 nM | 0.772 | –
E57 [10], 1000 nM | 1.04 | –
E57 [10], 3000 nM | 1.21 | –
FT3469 [4], 4.1 nM | – | 0.65
FT3469 [4], 12.3 nM | – | 0.955
FT3469 [4], 37 nM | – | 0.892
FT3469 [4], 111.1 nM | – | 0.941
FT3469 [4], 333.3 nM | – | 1.09
FT3469 [4], 1000 nM | – | 1.08
FT3469 [4], 3000 nM | – | 1.06
FT3469 [11], 4.1 nM | 1.45 | –
FT3469 [11], 12.3 nM | 0.83 | –
FT3469 [11], 37 nM | 0.983 | –
FT3469 [11], 111.1 nM | 0.685 | –
FT3469 [11], 333.3 nM | 0.68 | –
FT3469 [11], 1000 nM | 0.784 | –
FT3469 [11], 3000 nM | 2.45 | –

CN1[C@@H]2CC[C@H]1CC(OC(=O)c1c[nH]c3ccccc13)C2 (stereo partly specified) [3-Tropanyl-indole-3-carboxylate hydrochloride]
Conditions | phenotypic distance | surviving fraction
E13 [1], 4.1 nM | – | 1.02
E13 [1], 12.3 nM | – | 0.939
E13 [1], 37 nM | – | 0.913
E13 [1], 111.1 nM | – | 0.975
E13 [1], 333.3 nM | – | 0.828
E13 [1], 1000 nM | – | 0.931
E13 [1], 3000 nM | – | 0.699
E13 [8], 4.1 nM | 0.681 | –
E13 [8], 12.3 nM | 1.03 | –
E13 [8], 37 nM | 0.87 | –
E13 [8], 111.1 nM | 0.726 | –
E13 [8], 333.3 nM | 0.624 | –
E13 [8], 1000 nM | 1.01 | –
E13 [8], 3000 nM | 1.66 | –
E21 [6], 4.1 nM | – | 0.945
E21 [6], 12.3 nM | – | 0.965
E21 [6], 37 nM | – | 0.912
E21 [6], 111.1 nM | – | 1
E21 [6], 333.3 nM | – | 0.935
E21 [6], 1000 nM | – | 0.929
E21 [6], 3000 nM | – | 0.821
E21 [13], 4.1 nM | 0.866 | –
E21 [13], 12.3 nM | 0.871 | –
E21 [13], 37 nM | 0.74 | –
E21 [13], 111.1 nM | 0.815 | –
E21 [13], 333.3 nM | 0.781 | –
E21 [13], 1000 nM | 0.853 | –
E21 [13], 3000 nM | 1.33 | –
E28 [5], 4.1 nM | – | 1.25
E28 [5], 12.3 nM | – | 0.858
E28 [5], 37 nM | – | 1.06
E28 [5], 111.1 nM | – | 0.728
E28 [5], 333.3 nM | – | 0.943
E28 [5], 1000 nM | – | 0.894
E28 [5], 3000 nM | – | 0.734
E28 [12], 4.1 nM | 1.03 | –
E28 [12], 12.3 nM | 0.793 | –
E28 [12], 37 nM | 0.737 | –
E28 [12], 111.1 nM | 0.922 | –
E28 [12], 333.3 nM | 0.691 | –
E28 [12], 1000 nM | 0.845 | –
E28 [12], 3000 nM | 1.24 | –
E31 [2], 4.1 nM | – | 0.893
E31 [2], 12.3 nM | – | 0.975
E31 [2], 37 nM | – | 0.905
E31 [2], 111.1 nM | – | 0.978
E31 [2], 333.3 nM | – | 1.17
E31 [2], 1000 nM | – | 0.945
E31 [2], 3000 nM | – | 0.906
E31 [9], 4.1 nM | 0.406 | –
E31 [9], 12.3 nM | 0.329 | –
E31 [9], 37 nM | 0.778 | –
E31 [9], 111.1 nM | 0.924 | –
E31 [9], 333.3 nM | 1.07 | –
E31 [9], 1000 nM | 0.762 | –
E31 [9], 3000 nM | 0.758 | –
E34 [7], 4.1 nM | – | 0.923
E34 [7], 12.3 nM | – | 0.963
E34 [7], 37 nM | – | 1.2
E34 [7], 111.1 nM | – | 0.942
E34 [7], 333.3 nM | – | 0.904
E34 [7], 1000 nM | – | 0.885
E34 [7], 3000 nM | – | 0.9
E34 [14], 4.1 nM | 1.09 | –
E34 [14], 12.3 nM | 0.577 | –
E34 [14], 37 nM | 0.765 | –
E34 [14], 111.1 nM | 1.86 | –
E34 [14], 333.3 nM | 0.741 | –
E34 [14], 1000 nM | 1.59 | –
E34 [14], 3000 nM | 1.13 | –
E57 [3], 4.1 nM | – | 0.904
E57 [3], 12.3 nM | – | 0.959
E57 [3], 37 nM | – | 1.02
E57 [3], 111.1 nM | – | 1.02
E57 [3], 333.3 nM | – | 1.02
E57 [3], 1000 nM | – | 1.04
E57 [3], 3000 nM | – | 0.94
E57 [10], 4.1 nM | 0.753 | –
E57 [10], 12.3 nM | 0.699 | –
E57 [10], 37 nM | 0.615 | –
E57 [10], 111.1 nM | 0.914 | –
E57 [10], 333.3 nM | 0.614 | –
E57 [10], 1000 nM | 1.06 | –
E57 [10], 3000 nM | 1.1 | –
FT3469 [4], 4.1 nM | – | 1.11
FT3469 [4], 12.3 nM | – | 0.924
FT3469 [4], 37 nM | – | 1.07
FT3469 [4], 111.1 nM | – | 1.06
FT3469 [4], 333.3 nM | – | 0.843
FT3469 [4], 1000 nM | – | 0.927
FT3469 [4], 3000 nM | – | 0.855
FT3469 [11], 4.1 nM | 0.942 | –
FT3469 [11], 12.3 nM | 0.464 | –
FT3469 [11], 37 nM | 2.87 | –
FT3469 [11], 111.1 nM | 0.576 | –
FT3469 [11], 333.3 nM | 0.57 | –
FT3469 [11], 1000 nM | 0.775 | –
FT3469 [11], 3000 nM | 0.616 | –
